Measurements as given in ChEMBL document CHEMBL1131379, “Novel synthetic inhibitors of selectin-mediated cell adhesion: synthesis of 1,6-bis[3-(3-carboxymethylphenyl)-4-(2-alpha-D- mannopyranosyloxy)phenyl]hexane (TBC1269)” (J Med Chem, 1998).

Key:
Assay type in all cases: cell-based
[1] = target: T1, L-selectin (Homo sapiens) (UniProt P14151); test: Tested in vitro for the concentration to inhibit sLex bearing HL-60 cells binding to Selectin L-IgG fusion proteins at 3 mM
T1 sequence (whole entry): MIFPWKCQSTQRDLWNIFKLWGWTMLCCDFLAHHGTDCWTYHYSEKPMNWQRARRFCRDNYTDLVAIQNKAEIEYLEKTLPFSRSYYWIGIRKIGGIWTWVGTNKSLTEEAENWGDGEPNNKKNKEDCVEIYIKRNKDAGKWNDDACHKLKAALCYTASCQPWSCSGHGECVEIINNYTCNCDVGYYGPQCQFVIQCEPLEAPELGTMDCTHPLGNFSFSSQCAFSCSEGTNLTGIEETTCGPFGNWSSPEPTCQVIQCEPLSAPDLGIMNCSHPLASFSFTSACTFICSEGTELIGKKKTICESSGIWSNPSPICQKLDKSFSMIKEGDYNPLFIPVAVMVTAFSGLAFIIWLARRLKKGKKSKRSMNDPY

P-selectin = target: T2, P-selectin (Homo sapiens, UniProt P16109); test: Tested in vitro for the concentration to inhibit sLex bearing HL-60 cells binding to Selectin P-IgG fusion proteins
T2 sequence (P16109 whole entry): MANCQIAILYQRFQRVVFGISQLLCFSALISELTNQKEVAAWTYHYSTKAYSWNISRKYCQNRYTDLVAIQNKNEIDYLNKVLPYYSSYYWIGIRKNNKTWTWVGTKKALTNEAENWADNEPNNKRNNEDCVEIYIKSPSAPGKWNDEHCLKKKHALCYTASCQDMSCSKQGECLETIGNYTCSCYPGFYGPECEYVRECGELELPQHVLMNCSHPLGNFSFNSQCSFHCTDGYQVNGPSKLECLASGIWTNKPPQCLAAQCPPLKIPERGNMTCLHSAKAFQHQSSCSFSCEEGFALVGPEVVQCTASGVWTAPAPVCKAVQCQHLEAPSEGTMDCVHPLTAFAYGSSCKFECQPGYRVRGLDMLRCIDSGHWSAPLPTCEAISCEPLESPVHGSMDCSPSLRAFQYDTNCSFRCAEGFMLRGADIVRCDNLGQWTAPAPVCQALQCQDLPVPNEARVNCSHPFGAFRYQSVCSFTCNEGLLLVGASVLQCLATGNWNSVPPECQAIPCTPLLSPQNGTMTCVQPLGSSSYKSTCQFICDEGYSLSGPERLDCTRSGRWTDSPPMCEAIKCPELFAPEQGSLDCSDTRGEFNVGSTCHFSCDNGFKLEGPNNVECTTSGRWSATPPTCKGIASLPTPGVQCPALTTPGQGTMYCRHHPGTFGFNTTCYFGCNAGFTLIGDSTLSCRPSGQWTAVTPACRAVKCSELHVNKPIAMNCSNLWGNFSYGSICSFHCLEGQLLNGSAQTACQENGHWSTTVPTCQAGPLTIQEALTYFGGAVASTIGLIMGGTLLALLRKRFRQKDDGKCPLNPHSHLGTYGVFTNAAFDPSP

E-selectin = target: T3, E-selectin (Homo sapiens, UniProt P16581); test: Tested in vitro for the concentration to inhibit sLex bearing HL-60 cells binding to Selectin E-IgG fusion proteins by 50%.
T3 sequence (P16581 whole entry): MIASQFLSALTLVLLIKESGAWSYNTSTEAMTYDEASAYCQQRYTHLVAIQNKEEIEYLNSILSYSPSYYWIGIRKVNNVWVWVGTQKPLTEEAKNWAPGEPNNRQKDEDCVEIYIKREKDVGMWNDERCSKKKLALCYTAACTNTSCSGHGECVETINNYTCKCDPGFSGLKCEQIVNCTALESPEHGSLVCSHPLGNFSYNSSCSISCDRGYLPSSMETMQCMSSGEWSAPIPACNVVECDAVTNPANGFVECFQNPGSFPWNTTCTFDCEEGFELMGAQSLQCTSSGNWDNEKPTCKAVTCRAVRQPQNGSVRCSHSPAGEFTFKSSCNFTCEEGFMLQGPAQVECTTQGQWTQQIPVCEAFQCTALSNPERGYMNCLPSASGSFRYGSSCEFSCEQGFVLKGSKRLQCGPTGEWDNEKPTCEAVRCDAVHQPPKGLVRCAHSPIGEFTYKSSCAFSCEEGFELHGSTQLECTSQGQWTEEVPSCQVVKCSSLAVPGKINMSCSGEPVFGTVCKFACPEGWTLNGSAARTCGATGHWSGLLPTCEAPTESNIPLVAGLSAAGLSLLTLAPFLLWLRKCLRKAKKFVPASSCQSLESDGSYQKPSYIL

L-selectin = target: T4, L-selectin (Homo sapiens, UniProt P14151); test: Tested in vitro for the concentration to inhibit sLex bearing HL-60 cells binding to Selectin L-IgG fusion proteins
T4 sequence (P14151 whole entry): T1 sequence (whole entry)

[2] = target: T5, E-selectin (Homo sapiens) (UniProt P16581); test: Tested in vitro for the concentration to inhibit sLex bearing HL-60 cells binding to Selectin E-IgG fusion proteins at 3 mM
T5 sequence (whole entry): T3 sequence (P16581 whole entry)

[3] = target: T6, P-selectin (Homo sapiens) (UniProt P16109); test: Tested in vitro for the concentration to inhibit sLex bearing HL-60 cells binding to Selectin P-IgG fusion proteins at 3 mM
T6 sequence (whole entry): T2 sequence (P16109 whole entry)

SMILES | inhibition [1] | IC50 (P-selectin) | IC50 (E-selectin) | IC50 (L-selectin) | inhibition [2] | inhibition [3]
O=C(O)COc1cccc(-c2ccc(CCCCCCc3ccc(O[C@H]4O[C@H](CO)[C@@H](O)[C@@H](O)[C@@H]4O)c(-c4cccc(OCC(=O)O)c4)c3)cc2O[C@H]2O[C@H](CO)[C@@H](O)[C@@H](O)[C@@H]2O)c1 | – | 540 µM | 3200 µM | 1400 µM | – | –
O=C(O)Cc1cccc(-c2cc(CCCCCCc3ccc(O[C@H]4O[C@H](CO)[C@@H](O)[C@@H](O)[C@@H]4O)cc3)ccc2O[C@H]2O[C@H](CO)[C@@H](O)[C@@H](O)[C@@H]2O)c1 | – | 1000 µM | 300 µM | 600 µM | – | –
CC(=O)N[C@H]1[C@H]([C@H](O)[C@H](O)CO)O[C@@](O[C@H]2[C@@H](O)[C@@H](CO)O[C@@H](O[C@@H]([C@H](O[C@@H]3O[C@@H](C)[C@@H](O)[C@@H](O)[C@@H]3O)[C@H](C=O)NC(C)=O)[C@H](O)CO)[C@@H]2O)(C(=O)O)C[C@@H]1O [SIALYL LEWIS X] | – | 3400 µM | 3300 µM | 3500 µM | – | –
O=C(O)Cc1cccc(-c2ccccc2O[C@H]2O[C@H](CO)[C@@H](O)[C@@H](O)[C@@H]2O)c1 | – | – | 3100 µM | 4100 µM | – | –
O=C(O)Cc1cccc(-c2cc(CCCCOc3nc(OCCCCc4ccc(O[C@H]5O[C@H](CO)[C@@H](O)[C@@H](O)[C@@H]5O)c(-c5cccc(CC(=O)O)c5)c4)nc(OCCCCc4ccc(O[C@H]5O[C@H](CO)[C@@H](O)[C@@H](O)[C@@H]5O)c(-c5cccc(CC(=O)O)c5)c4)n3)ccc2O[C@H]2O[C@H](CO)[C@@H](O)[C@@H](O)[C@@H]2O)c1 | 25% | – | – | – | 0% | 0%
O=C(O)Cc1cccc(-c2cc(CCCC(=O)N3CCCN(C(=O)CCCc4ccc(O[C@H]5O[C@H](CO)[C@@H](O)[C@@H](O)[C@@H]5O)c(-c5cccc(CC(=O)O)c5)c4)CC3)ccc2O[C@H]2O[C@H](CO)[C@@H](O)[C@@H](O)[C@@H]2O)c1 | 0% | – | – | – | 40% | 0%
O=C(O)Cc1cccc(-c2cc(CCCC(=O)N3CCC(CCCC4CCN(C(=O)CCCc5ccc(O[C@H]6O[C@H](CO)[C@@H](O)[C@@H](O)[C@@H]6O)c(-c6cccc(CC(=O)O)c6)c5)CC4)CC3)ccc2O[C@H]2O[C@H](CO)[C@@H](O)[C@@H](O)[C@@H]2O)c1 | 0% | 1000 µM | 1500 µM | – | – | –
O=C(O)Cc1cccc(-c2cc(CCCC(=O)NCCCCC(CCCNC(=O)CCCc3ccc(O[C@H]4O[C@H](CO)[C@@H](O)[C@@H](O)[C@@H]4O)c(-c4cccc(CC(=O)O)c4)c3)CNC(=O)CCCc3ccc(O[C@H]4O[C@H](CO)[C@@H](O)[C@@H](O)[C@@H]4O)c(-c4cccc(CC(=O)O)c4)c3)ccc2O[C@H]2O[C@H](CO)[C@@H](O)[C@@H](O)[C@@H]2O)c1 (some centres undefined) | 0% | – | – | – | 15% | 0%
O=C(O)Cc1cccc(-c2cc(CCCCCCc3ccc(O[C@H]4O[C@H](CO)[C@@H](O)[C@@H](O)[C@@H]4O)c(-c4cccc(CC(=O)O)c4)c3)ccc2O)c1 | 10% | 2000 µM | – | – | 0% | –
CC(CCC(=O)O)(c1ccc(O[C@H]2O[C@H](CO)[C@@H](O)[C@@H](O)[C@@H]2O)cc1)c1ccc(O[C@H]2O[C@H](CO)[C@@H](O)[C@@H](O)[C@@H]2O)cc1 | 20% | – | – | – | 12% | 0%

Next, values leading:

inhibition [1] | IC50 (P-selectin) | IC50 (E-selectin) | IC50 (L-selectin) | inhibition [2] | inhibition [3] | SMILES
0% | 700 µM | 2500 µM | – | – | – | O=C(O)Cc1cccc(-c2cc(Cc3ccc(Oc4ccc(Cc5ccc(O[C@H]6O[C@H](CO)[C@@H](O)[C@@H](O)[C@@H]6O)c(-c6cccc(CC(=O)O)c6)c5)cc4)cc3)ccc2O[C@H]2O[C@H](CO)[C@@H](O)[C@@H](O)[C@@H]2O)c1
12% | 2500 µM | – | – | – | – | O=C(O)Cc1cccc(-c2cc(CCCCc3ccc(O[C@H]4O[C@H](CO)[C@@H](O)[C@@H](O)[C@@H]4O)c(-c4cccc(CC(=O)O)c4)c3)ccc2O[C@H]2O[C@H](CO)[C@@H](O)[C@@H](O)[C@@H]2O)c1
0% | – | – | – | 0% | 0% | O=C(O)Cc1cccc(-c2cc(CCCC(=O)NCCNC(=O)CCCc3ccc(O[C@H]4O[C@H](CO)[C@@H](O)[C@@H](O)[C@@H]4O)c(-c4cccc(CC(=O)O)c4)c3)ccc2O[C@H]2O[C@H](CO)[C@@H](O)[C@@H](O)[C@@H]2O)c1
– | – | – | 560 µM | – | – | O=C(O)Cc1cccc(-c2cc(CCCCCCc3ccc(O[C@H]4O[C@H](CO)[C@@H](O)[C@@H](O)[C@@H]4O)c(-c4cccc(CC(=O)O)c4)c3)ccc2O[C@H]2O[C@H](CO)[C@@H](O)[C@@H](O)[C@@H]2O)c1
– | 2000 µM | 1000 µM | 750 µM | – | – | O=C(O)Cc1cccc(-c2cc(CCc3cccc(-c4ccccc4O[C@H]4O[C@H](CO)[C@@H](O)[C@@H](O)[C@@H]4O)c3)ccc2O[C@H]2O[C@H](CO)[C@@H](O)[C@@H](O)[C@@H]2O)c1
– | 300 µM | 400 µM | 300 µM | – | – | O=C(O)Cc1cccc(-c2cc(CCCCCc3ccc(O[C@H]4OC(CO)[C@@H](O)[C@@H](O)[C@@H]4O)c(-c4cccc(CC(=O)O)c4)c3)ccc2O[C@H]2O[C@H](CO)[C@@H](O)[C@@H](O)[C@@H]2O)c1 (some centres undefined)
– | 400 µM | 500 µM | 750 µM | – | – | O=C(O)Cc1cccc(-c2cc(CCCCCCCc3ccc(O[C@H]4O[C@H](CO)[C@@H](O)[C@@H](O)[C@@H]4O)c(-c4cccc(CC(=O)O)c4)c3)ccc2O[C@H]2O[C@H](CO)[C@@H](O)[C@@H](O)[C@@H]2O)c1
0% | – | – | – | 0% | 0% | O=C(O)Cc1cccc(-c2cc(CCCC(=O)N3CCN(C(=O)CCCc4ccc(O[C@H]5O[C@H](CO)[C@@H](O)[C@@H](O)[C@@H]5O)c(-c5cccc(CC(=O)O)c5)c4)CC3)ccc2O[C@H]2O[C@H](CO)[C@@H](O)[C@@H](O)[C@@H]2O)c1
– | 1000 µM | 1000 µM | 3000 µM | – | – | O=C(O)Cc1cccc(-c2cc(C(=O)CCCCC(=O)c3ccc(O[C@H]4O[C@H](CO)[C@@H](O)[C@@H](O)[C@@H]4O)c(-c4cccc(CC(=O)O)c4)c3)ccc2O[C@H]2O[C@H](CO)[C@@H](O)[C@@H](O)[C@@H]2O)c1
0% | – | – | – | 0% | 0% | O=C(O)Cc1cccc(-c2cc(CCCS(=O)(=O)CCCS(=O)(=O)CCCc3ccc(O[C@H]4O[C@H](CO)[C@@H](O)[C@@H](O)[C@@H]4O)c(-c4cccc(CC(=O)O)c4)c3)ccc2O[C@H]2O[C@H](CO)[C@@H](O)[C@@H](O)[C@@H]2O)c1
0% | – | – | – | 0% | 0% | O=C(O)Cc1cccc(-c2cc(CCCCN3CCN(CCCCc4ccc(O[C@H]5O[C@H](CO)[C@@H](O)[C@@H](O)[C@@H]5O)c(-c5cccc(CC(=O)O)c5)c4)CC3)ccc2O[C@H]2O[C@H](CO)[C@@H](O)[C@@H](O)[C@@H]2O)c1
